Results from patent publication US8071716B2, “Thymus-specific protein” (Immune System Key Ltd., priority 2004, dated 2011).
Where no end group is shown, it is not given here.

How the values were obtained:
[1] = Solubility in aqueous solution; format: physicochemical
[2] = tested on: human peripheral blood lymphocytes (PBL); assay: BrdU incorporation proliferation assay in human PBL; format: cell-based; details: for proliferation stimulating activity, in words: conclusions from Table 1
Experimental: The T101 peptide was tested for its ability to activate proliferation of mouse spleenocytes or thymocytes (two mouse strains were used: CD1 and Balb/C), as well as human peripheral blood lymphocytes (PBL). The proliferation activity was measured by 5-bromo 2′-deoxy-uridine (BrdU) incorporation into these cells.
Human PBL were isolated on a Ficole gradient from blood taken from volunteers and then plated in 96-well plates, again using RPMI 1640+10% FCS+Pen/Str.
The cells were treated with different concentrations of the peptide or saline (as above) and after 48 hours were labeled for 6 hours with BrdU and tested for BrdU incorporation into their nucleus.
In the next experiment, several deletion mutants of the T101 peptide were constructed and synthesized. These mutants were tested for their ability to stimulate proliferation in human PBL. The right-hand column indicates the fold increase in proliferation over proliferation in untreated cells.

Row | solubility in an aqueous solution [1] | Substance | Fold Increase in proliferation over proliferation in untreated cells [2] | proliferation stimulating activity, in words [2]
1 | soluble | LHLWLSGEPVQSSGTKDMRSKSDSKRVSDKQLISKAVWWTFFLPSTLWERK [T101 peptide] | – | –
2 | – | Mut #1: 13 C-terminal amino acids of the T101 peptide: WTFFLPSTLWERK (listed as Homo sapiens) | 2.5-3 Fold | very active
3 | – | Mut #5: amino acids 36 to 48 of the T101 peptide: AVWWTFFLPSTLW (listed as Homo sapiens) | 2-2.2 Fold | –
4 | – | Mut #4: 8 C-terminal amino acids of the T101 peptide: PSTLWERK (Table 1 prints PSTLTWERK) (listed as Homo sapiens) | 1.1-1.3 Fold | almost no activity
5 | – | Mut #2: amino acids 6 to 28 of the T101 peptide: SGEPVQSSGTKDMRSKSDSKRVS (listed as Homo sapiens) | 1.4-1.6 Fold | relatively low activity
6 | – | Mut #3: 23 C-terminal amino acids of the T101 peptide: DKQLISKAVWWTFFLPSTLWERK (listed as Homo sapiens) | 2.2-2.8 Fold | very active
7 | – | Mut #6: amino acids 36 to 51 of the T101 peptide in the reverse order: KREWLTSPLFFTWWVA (listed as Homo sapiens) | 2-2.4 Fold | –
